Source: ChEMBL document CHEMBL1177689, “Structural characteristics of green tea catechins for formation of protein carbonyl in human serum albumin” (Bioorg Med Chem, 2010)

Key:
[1] = Chemical stability in 100 mM phosphate buffer at pH 7.4 at 100 uM after 60 mins by HPLC analysis; type: physicochemical; conditions: pH 7.4, 1 h
Albumin = Albumin (Homo sapiens, UniProt P02768); assay: Binding affinity to human serum albumin in 100 mM phosphate buffer at pH 7.4 assessed as formation of biotin-LC-hydrazide labeled protein carbonyls at 100 uM pretreated 60 mins before biotin-LC-hydrazide challenge measured after 60 mins by SDS-PAGE/Western blotting; type: ADME; conditions: isolated protein, pH 7.4, 1 h
Chain of Albumin (P02768 whole entry): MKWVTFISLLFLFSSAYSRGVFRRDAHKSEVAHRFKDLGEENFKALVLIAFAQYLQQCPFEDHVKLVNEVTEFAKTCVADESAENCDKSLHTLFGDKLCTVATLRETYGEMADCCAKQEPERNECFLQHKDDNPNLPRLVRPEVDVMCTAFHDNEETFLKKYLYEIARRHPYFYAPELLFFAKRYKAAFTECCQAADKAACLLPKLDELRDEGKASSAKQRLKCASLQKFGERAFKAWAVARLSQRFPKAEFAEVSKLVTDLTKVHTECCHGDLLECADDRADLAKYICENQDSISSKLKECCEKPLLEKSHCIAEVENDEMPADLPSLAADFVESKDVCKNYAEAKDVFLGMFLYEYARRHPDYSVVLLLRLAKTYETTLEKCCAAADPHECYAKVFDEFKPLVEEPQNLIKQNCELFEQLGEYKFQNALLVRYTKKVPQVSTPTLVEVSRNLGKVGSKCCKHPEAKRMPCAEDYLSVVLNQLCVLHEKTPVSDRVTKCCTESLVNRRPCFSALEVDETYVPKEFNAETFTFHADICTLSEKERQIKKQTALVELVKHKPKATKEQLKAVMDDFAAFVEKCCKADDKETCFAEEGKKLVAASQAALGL

Row | SMILES | Stability [1] | Activity (Albumin)
1 | COc1c(O)cc([C@H]2Oc3cc(O)cc(O)c3C[C@H]2OC(=O)c2cc(O)c(O)c(O)c2)cc1O | Stable | Active
2 | COc1c(O)cc(C(=O)O[C@@H]2Cc3c(O)cc(O)cc3O[C@@H]2c2cc(O)c(O)c(O)c2)cc1O | – | Active
3 | COc1cc(C(=O)O[C@@H]2Cc3c(O)cc(O)cc3O[C@@H]2c2cc(O)c(O)c(O)c2)cc(O)c1O | Unstable | Active
4 | O=C(O)c1cccc(O)c1O [2,3-DIHYDROXYBENZOIC ACID] | – | Not Active
5 | O=C(O)c1cc(O)cc(O)c1 [3,5-DIHYDROXYBENZOIC ACID] | – | Not Active
6 | Oc1cc(O)c2c(c1)O[C@H](c1ccc(O)c(O)c1)[C@H](O)C2 [(-)-EPICATECHIN] | Stable | Active
7 | O=C(O[C@@H]1Cc2c(O)cc(O)cc2O[C@@H]1c1ccc(O)c(O)c1)c1cc(O)c(O)c(O)c1 [EPICATECHIN GALLATE] | Stable | Active
8 | Oc1cc(O)c2c(c1)O[C@H](c1cc(O)c(O)c(O)c1)[C@H](O)C2 [EPIGALLOCATECHIN] | Unstable | Active
9 | O=C(O[C@@H]1Cc2c(O)cc(O)cc2O[C@@H]1c1cc(O)c(O)c(O)c1)c1cc(O)c(O)c(O)c1 [EPIGALOCATECHIN GALLATE] | Unstable | Active
10 | COC(=O)c1cc(O)c(O)c(O)c1 [GALLIC ACID METHYL ESTER] | – | Not Active
11 | O=C(O)c1ccc(O)c(O)c1 [PROTOCATECHUIC ACID] | – | Not Active
12 | Oc1cccc(O)c1O [PYROGALLOL] | – | Active
